Results: patent publication US12162858B2, “Quinoline derivatives as inhibitors of AXL/MER RTK and CSF1R” (QURIENT CO., LTD., priority 2018, dated 2024)
pIC50: −log10 of the molar value. Like-named read-outs stand apart in the source and are kept apart here.

Legend:
[1] = target: CSF1R (Homo sapiens, UniProt P07333); experiment: KINOMEscan competition binding assay for CSF1R; set-up: DNA tag for qPCR (not a peptide); host or cells: E. coli/T7 phage or HEK-293; conditions: @ 0.1 uM
Method: KINOMEscan™ is based on a competition binding assay that quantitatively measures the ability of a compound to compete with an immobilized, active-site directed ligand. The assay is performed by combining three components: DNA-tagged kinase; immobilized ligand; and a test compound. The ability of the test compound to compete with the immobilized ligand is measured via quantitative PCR of the DNA tag.
E. coli were grown to log-phase and infected with T7 phage and incubated with shaking at 32° C. until lysis. The lysates were centrifuged and filtered to remove cell debris. The remaining kinases were produced in HEK-293 cells and subsequently tagged with DNA for qPCR detection. Streptavidin-coated magnetic beads were treated with biotinylated small molecule ligands for 30 minutes at room temperature to generate affinity resins for kinase assays. The liganded beads were blocked with excess biotin and washed with blocking buffer (SeaBlock (Pierce), 1% BSA, 0.05% Tween 20, 1 mM DTT) to remove unbound ligand and to reduce non-specific binding. Binding reactions were assembled by combining kinases, liganded affinity beads, and test compounds in 1× binding buffer (20% SeaBlock, 0.17×PBS, 0.05% Tween 20, 6 mM DTT). Test compounds were prepared as 111× stocks in 100% DMSO. Kds were determined using an 11-point 3-fold compound dilution series with three DMSO control points. All compounds for Kd measurements are distributed by acoustic transfer (non-contact dispensing) in 100% DMSO. The compounds were then diluted directly into the assays such that the final concentration of DMSO was 0.9%. In case of % inhibition, test compounds were prepared as 40× stocks in 100% DMSO and directly diluted into the assay. All reactions performed in polypropylene 384-well plate. Each was a final volume of 0.02 ml. The assay plates were incubated at room temperature with shaking for 1 hour and the affinity beads were washed with wash buffer (1×PBS, 0.05% Tween 20). The beads were then re-suspended in elution buffer (1×PBS, 0.05% Tween 20, 0.5 μM non-biotinylated affinity ligand) and incubated at room temperature with shaking for 30 minutes. The kinase concentration in the eluates was measured by qPCR.
The CSF1R kinase binding activity results are shown in tables 1 (Kd) and 2 (percent inhibition at a concentration of 0.1 uM of compound to be tested).
Binding constants (Kds) were calculated with a standard dose-response curve using the Hill equation: […]
The Hill Slope was set to −1.
Curves were fitted using a non-linear least square fit with the Levenberg-Marquardt algorithm.
Binding % inhibition were calculated with as below:
[formula] • negative control=DMSO (100% Ctrl) • positive control=control compound (0% Ctrl)

[2] = tested on: CSF1R (M-NFS-60 cells); experiment: Cell Titer-Glo viability assay using M-NFS-60 cells; assay type: cell-based; conditions: Mus musculus, read-out: Cellular CSF1R activity by M-NFS-60 viability assay (IC50 activity range)
Method: M-NFS-60 cells were cultured in RPMI-1640 medium containing 10% FBS, 0.05 mM 2-Mercaptoethanol, penicillin (100 U/ml)/streptomycin ([…]) and supplemented with 62 ng/ml recombinant human M-CSF at 37° C./5% CO2. Aliquots of the cells were seeded into a 96-well plate (2×10^5 cells in 100 μl/well) and then incubated at 37° C./5% CO2 1 h. Dissolve compound in 100% DMSO to make 10 mM stock solutions (Aliquots stored in the Nitrogen Cabinet). Dilute 10 mM compounds solutions for 2-fold in 100% DMSO to get 5 mM solutions (10 μl+10 μl DMSO), and then make a 3-fold serial dilution (10 μl+20 μl DMSO) for 10 doses. For reference compounds: Dilute 10 mM compounds solutions for 20-fold in 100% DMSO to get 0.5 mM solutions (2 μl+38 μl DMSO), and then make a 3-fold serial dilution (10 μl+20 μl DMSO) for 8 doses. The 96-well plate was equilibrated at room temperature for 30 min. 50 μl of CellTiter-Glo® Reagent added to each well and mixed for 2 min on an orbital shaker to induce cell lysis. The 96-well plate was incubated at room temperature for 10 min to stabilize luminescent signal. Luminescent was measured […] by EnVison plate reader. Calculations and Formulas: The following calculations and formulas are used for data analysis using XL Fit software: The curve fitting was made using the Sigmoidal Dose-Response Model (Fit model, 205).

[3] = read-out: CSF1R kinase binding activity, Percent (%) inhibition
[4] = read-out: CSF1R kinase binding activity, Range

CSF1R, sequence (P07333 20-972): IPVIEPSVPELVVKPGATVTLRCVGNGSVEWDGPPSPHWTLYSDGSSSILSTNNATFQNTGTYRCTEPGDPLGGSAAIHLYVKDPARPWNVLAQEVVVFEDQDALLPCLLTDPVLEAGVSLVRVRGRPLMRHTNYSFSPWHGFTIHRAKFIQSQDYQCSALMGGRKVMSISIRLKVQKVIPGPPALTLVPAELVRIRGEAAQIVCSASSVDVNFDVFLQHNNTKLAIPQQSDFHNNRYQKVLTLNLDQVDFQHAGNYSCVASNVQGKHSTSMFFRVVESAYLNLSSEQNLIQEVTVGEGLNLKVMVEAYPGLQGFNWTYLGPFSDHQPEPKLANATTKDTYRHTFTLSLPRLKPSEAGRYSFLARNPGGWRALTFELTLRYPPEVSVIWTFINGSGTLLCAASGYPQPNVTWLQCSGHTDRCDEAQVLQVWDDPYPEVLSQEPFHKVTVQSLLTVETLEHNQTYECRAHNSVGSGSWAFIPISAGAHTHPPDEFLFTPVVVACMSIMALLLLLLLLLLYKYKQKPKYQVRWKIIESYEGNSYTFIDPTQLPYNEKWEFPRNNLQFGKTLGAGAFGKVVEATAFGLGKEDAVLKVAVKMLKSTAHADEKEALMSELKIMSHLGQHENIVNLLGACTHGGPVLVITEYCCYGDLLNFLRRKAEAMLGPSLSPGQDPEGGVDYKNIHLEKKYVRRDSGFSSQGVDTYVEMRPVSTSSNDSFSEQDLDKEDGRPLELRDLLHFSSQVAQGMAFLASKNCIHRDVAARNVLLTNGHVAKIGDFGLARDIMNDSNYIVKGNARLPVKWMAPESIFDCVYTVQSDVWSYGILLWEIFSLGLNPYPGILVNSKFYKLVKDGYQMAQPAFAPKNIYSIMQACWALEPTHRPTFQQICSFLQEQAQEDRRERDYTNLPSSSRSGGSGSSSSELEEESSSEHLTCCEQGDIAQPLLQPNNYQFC

| Structure (SMILES) | inhibition at 0.1 µM [1, 3] [%] | inhibition at 0.1 µM [1, 4] [%] | pIC50 [2] |
| --- | --- | --- | --- |
| COc1cc2nccc(Oc3ccc(NC(=O)c4nn(CC(C)C)cc4OCC(F)(F)F)nn3)c2cc1OC [Compound 124] | 95 | ≥ 80 | 5.00 to 6.00 |
| COc1cc2nccc(Oc3ccc(NC(=O)c4nn(C5CC5)cc4OCC(F)F)nn3)c2cc1OC [Compound 162] | 91 | ≥ 80 | 5.00 to 6.00 |
| COc1cc2nccc(Oc3ccc(NC(=O)c4nn(CCN)cc4OCC(F)(F)F)cn3)c2cc1OC [Compound 135] | 4 | < 50 | ≤ 5.00 |
| CNCCn1cc(OCC(F)(F)F)c(C(=O)Nc2ccc(Oc3ccnc4cc(OC)c(OC)cc34)c(C)c2)n1 [Compound 156] | 49 | < 50 | 5.00 to 6.00 |
| COc1cc2nccc(Oc3ccc(NC(=O)c4nn(CCOC5CC5)cc4OCC(F)(F)F)cc3C)c2cc1OC [Compound 117] | 94 | ≥ 80 | > 6.00 |
| CNCCn1cc(OCC(F)(F)F)c(C(=O)Nc2ccc(Oc3ccnc4cc(OC)c(OC)cc34)nc2)n1 [Compound 137] | 6 | < 50 | 5.00 to 6.00 |
| COc1cc2nccc(Oc3ccc(NC(=O)c4nn(CCOC5CC5)cc4OCC(F)(F)F)cc3)c2cc1OC [Compound 118] | 93 | ≥ 80 | 5.00 to 6.00 |
| COc1cc2nccc(Oc3ccc(NC(=O)c4nn(C5CCNC5)cc4OCC(F)(F)F)nn3)c2cc1OC (stereo not drawn) [Compound 122] | 19 | < 50 | 5.00 to 6.00 |
| COc1cc2nccc(Oc3ccc(NC(=O)c4nn(C5CC5)cc4OCC(F)(F)F)nn3)c2cc1OC [Compound 112] | 97 | ≥ 80 | 5.00 to 6.00 |
| CNCCOc1cn(C2CC2)nc1C(=O)Nc1ccc(Oc2ccnc3cc(OC)c(OC)cc23)nn1 [Compound 160] | 25 | < 50 | ≤ 5.00 |
| COc1cc2nccc(Oc3ccc(NC(=O)c4nn(C5CC5)cc4OCCF)nn3)c2cc1OC [Compound 113] | 82 | ≥ 80 | 5.00 to 6.00 |
| CNCCn1cc(OCC(F)(F)F)c(C(=O)Nc2ccc(Oc3ccnc4cc(OC)c(OC)cc34)nn2)n1 [Compound 127] | 38 | < 50 | ≤ 5.00 |
| COc1cc2nccc(Oc3ccc(NC(=O)c4nn(C5CCN(C)C5)cc4OCC(F)(F)F)cn3)c2cc1OC (stereo not drawn) [Compound 133] | 9 | < 50 | 5.00 to 6.00 |
| COc1cc2nccc(Oc3ccc(NC(=O)c4nn(CCOC5CC5)cc4OCC(F)(F)F)nn3)c2cc1OC [Compound 120] | 95 | ≥ 80 | 5.00 to 6.00 |
| COc1cc2nccc(Oc3ccc(NC(=O)c4nn(C5CCCC5)cc4OCC(F)(F)F)cn3)c2cc1OC [Compound 131] | 21 | < 50 | 5.00 to 6.00 |
| COc1cc2nccc(Oc3ccc(NC(=O)c4nn(C5CC5)cc4OCC4CCC4)nn3)c2cc1OC [Compound 149] | 76 | 50 to 80 | 5.00 to 6.00 |
| CCCn1cc(OCCN(C)C)c(C(=O)Nc2ccc(Oc3ccnc4cc(OC)c(OC)cc34)c(F)c2)n1 [Compound 165] | 5 | < 50 | 5.00 to 6.00 |
| COc1cc2nccc(Oc3ccc(NC(=O)c4nn(CCOC5CC5)cc4OCC(F)(F)F)cc3F)c2cc1OC [Compound 116] | 93 | ≥ 80 | 5.00 to 6.00 |
